Measured values taken from PubChem BioAssay (NCI).
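All cell lines were grown in 96-well plates and treated with compound for 48 hours. TGI: concentration producing complete growth inhibition.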

How the values were obtained:
Assay in all cases: NCI anticancer screen, dose series, 48 h
HCT-116 colon = test system: HCT-116 colon
MDA-N = test system: MDA-N
NCI-H460 lung = test system: NCI-H460 lung
DU-145 prostate = test system: DU-145 prostate
HL-60(TB) leukemia = test system: HL-60(TB) leukemia
HCT-15 colon = test system: HCT-15 colon
SF-295 CNS = test system: SF-295 CNS
OVCAR-8 ovarian = test system: OVCAR-8 ovarian
BT-549 breast = test system: BT-549 breast
SNB-75 CNS = test system: SNB-75 CNS
SK-MEL-2 melanoma = test system: SK-MEL-2 melanoma
HOP-92 NSCLC = test system: HOP-92 NSCLC
SK-MEL-28 melanoma = test system: SK-MEL-28 melanoma
NCI-H522 lung = test system: NCI-H522 lung
UO-31 renal = test system: UO-31 renal
RXF 393 renal = test system: RXF 393 renal
NCI/ADR-RES ovarian = test system: NCI/ADR-RES ovarian
HT29 colon = test system: HT29 colon

| SMILES | TGI (HCT-116 colon) | TGI (MDA-N) | TGI (NCI-H460 lung) | TGI (DU-145 prostate) | TGI (HL-60(TB) leukemia) | TGI (HCT-15 colon) | TGI (SF-295 CNS) | TGI (OVCAR-8 ovarian) | TGI (BT-549 breast) | TGI (SNB-75 CNS) | TGI (SK-MEL-2 melanoma) | TGI (HOP-92 NSCLC) | TGI (SK-MEL-28 melanoma) | TGI (NCI-H522 lung) | TGI (UO-31 renal) | TGI (RXF 393 renal) | TGI (NCI/ADR-RES ovarian) | TGI (HT29 colon) |
| --- | --- | --- | --- | --- | --- | --- | --- | --- | --- | --- | --- | --- | --- | --- | --- | --- | --- | --- |
| COc1ccc(OC)c(NS(=O)(=O)c2ccc3nc(C)n(NS(=O)(=O)c4cc(OC)ccc4OC)c(=O)c3c2)c1 | > 100 µM | > 100 µM | > 100 µM | > 100 µM | > 100 µM | > 100 µM | > 100 µM | > 100 µM | > 100 µM | > 100 µM | > 100 µM | > 100 µM | > 100 µM | > 100 µM | > 100 µM | > 100 µM | > 100 µM | > 100 µM |
| CCCCCCCCCCCCCCCC(=O)N(CCCCCCCCCCC(=O)O)CC(O)C(O)C(OC1OC(CO)C(O)C(O)C1O)C(O)CO (stereo unspecified) | > 100 µM | > 100 µM | > 100 µM | > 100 µM | 47.7 µM | > 100 µM | 33.4 µM | 66 µM | 68 µM | > 100 µM | 43.5 µM | > 100 µM | 34.6 µM | > 100 µM | > 100 µM | > 100 µM | 61.1 µM | 42.8 µM |
| Cc1c2c(OCCN3CCCCC3)nn(C)c(=O)c2c(C)n1-c1ccccc1 | > 100 µM | > 100 µM | > 100 µM | > 100 µM | > 100 µM | > 100 µM | 47.9 µM | > 100 µM | > 100 µM | > 100 µM | 33.1 µM | > 100 µM | 84.7 µM | 84.1 µM | 29.1 µM | > 100 µM | > 100 µM | > 100 µM |
| C=C1C(=O)O[C@@H]2C[C@]3(C)CC[C@]4(C)[C@H](CC[C@@H]5[C@@]6(C)CCC(=O)C(C)(C)[C@@H]6CC[C@]54C)[C@H]3[C@H]12 | 31.3 µM | 30.9 µM | 35 µM | 34.7 µM | 3.72 µM | 28.1 µM | 33.6 µM | 38.7 µM | 37.4 µM | 43.9 µM | 47.7 µM | 26.2 µM | 38.4 µM | 23.2 µM | 28.3 µM | 34.3 µM | 66.7 µM | > 56.7 µM |
| CCCCCCCCCCCCOCCCOP(=O)([O-])OCC[N+](C)(C)C | > 86.8 µM | 19.3 µM | > 70 µM | > 75.1 µM | 55.5 µM | > 73.3 µM | > 100 µM | > 80.3 µM | 33.1 µM | 71.1 µM | > 100 µM | 52.8 µM | > 92.7 µM | 68.3 µM | > 89.5 µM | > 53.3 µM | > 100 µM | 61.7 µM |
| CCOC(=O)C(Cc1cccn1C(=O)OC(C)(C)C)[N+](=O)[O-] (stereo unspecified) | 51.3 µM | 90.4 µM | 53.4 µM | 70.2 µM | 48.1 µM | 62.3 µM | 99.4 µM | 93 µM | > 100 µM | 54.9 µM | 53.9 µM | 74.2 µM | 69 µM | 40.8 µM | 39.3 µM | 34.4 µM | > 100 µM | 50.3 µM |
| Cc1ccc(NC(=O)CSc2nc(=O)[nH]c3nc[nH]c23)cc1 | > 100 µM | > 100 µM | > 100 µM | > 100 µM | > 100 µM | > 100 µM | > 100 µM | > 100 µM | > 100 µM | > 100 µM | > 100 µM | > 100 µM | > 100 µM | > 100 µM | > 100 µM | > 100 µM | > 100 µM | > 100 µM |
| c1c[nH]c(C23C4C5C6C4C2C6C53)n1 (stereo unspecified) | > 100 µM | > 100 µM | > 100 µM | > 100 µM | > 100 µM | > 100 µM | > 100 µM | > 100 µM | > 100 µM | > 100 µM | > 100 µM | > 100 µM | > 100 µM | > 100 µM | > 100 µM | > 100 µM | > 100 µM | > 100 µM |
| CC(=O)OCC1OC(Oc2cc(C)c(O)cc2C/C=C(\C)CC/C=C(\C)CC(=O)CC(C)C)C(O)C(OC(C)=O)C1OC(C)=O (stereo unspecified) | > 50 µM | > 50 µM | 40 µM | > 50 µM | 23.4 µM | > 50 µM | > 50 µM | > 50 µM | 31.2 µM | > 50 µM | 26.6 µM | > 50 µM | > 50 µM | > 50 µM | 32 µM | 22.6 µM | 31.9 µM | 12.5 µM |
| O=S(=O)(/N=C(\NO)Nc1ccc(Cl)cc1)c1cccc2nsnc12 | 85.4 µM | 79 µM | > 100 µM | > 100 µM | 39.1 µM | > 100 µM | > 100 µM | > 100 µM | 83.9 µM | > 100 µM | 39.2 µM | 73.7 µM | 46.6 µM | 28.9 µM | > 100 µM | > 100 µM | > 100 µM | > 100 µM |
| Cc1cc(S(=O)(=O)Nc2nc(N)nc(N(C)C)n2)c(SCC(=O)O)cc1Cl | > 10 µM | > 10 µM | > 10 µM | > 10 µM | > 10 µM | > 10 µM | > 10 µM | > 10 µM | > 10 µM | > 10 µM | > 10 µM | > 10 µM | > 10 µM | > 10 µM | > 10 µM | > 10 µM | > 10 µM | > 10 µM |
| CCCCON1C[C@H](OC(C)=O)C(OC(C)=O)[C@H](OC(C)=O)C1 (stereo partly specified) | > 100 µM | > 100 µM | > 100 µM | > 100 µM | > 100 µM | > 100 µM | > 100 µM | > 100 µM | > 100 µM | > 100 µM | > 100 µM | > 100 µM | > 100 µM | > 100 µM | > 100 µM | > 100 µM | > 100 µM | > 100 µM |
| CN(/N=C/c1ccnc2ccccc12)c1ccc(Cl)cc1[N+](=O)[O-] | > 100 µM | > 100 µM | > 100 µM | > 100 µM | > 100 µM | > 100 µM | > 100 µM | > 100 µM | > 100 µM | > 100 µM | > 100 µM | > 100 µM |  | > 100 µM | > 100 µM | > 100 µM | > 100 µM | > 100 µM |
| O=C(NCc1cccc2ccccc12)N/N=C\c1ccc(Cl)cc1 | > 100 µM | 75.7 µM | > 100 µM | > 100 µM | > 100 µM | > 100 µM | > 100 µM | > 100 µM | > 100 µM | > 100 µM | > 100 µM | > 100 µM | > 100 µM | > 100 µM | > 100 µM | > 100 µM | > 100 µM | > 100 µM |
| Cc1cn([C@@H]2O[C@H](CO[Si](C)(C)C(C)(C)C)[C@]3(O[C@H]3C(=O)NN)[C@H]2O[Si](C)(C)C(C)(C)C)c(=O)[nH]c1=O | 13.3 µM | 13.3 µM | 15.6 µM | 21.8 µM | 6.09 µM | 14.8 µM | 22.2 µM | 19.8 µM | 13.9 µM | 22.9 µM | 17.4 µM | 19.7 µM | 25.3 µM | 5.47 µM | 27.7 µM | > 25.2 µM | 33 µM | 7.79 µM |
| CC(C)=CCC/C(C)=C/CC/C(C)=C/CC/C(=C/CC/C(C)=C\CC/C(C)=C/CC/C(C)=C/CC/C(C)=C/Cc1cc(O)ccc1O)CO | > 31.9 µM | 64.3 µM | 33 µM | > 100 µM | 9.5 µM | 39 µM | 5.85 µM | 13.5 µM | 12.5 µM | 12.7 µM | 11.5 µM | 31.4 µM | 10.9 µM | 6.26 µM | 21.4 µM | 2 µM | 19.4 µM | 18.9 µM |
| C=C1C(=O)O[C@@H]2C=C(C)C3=CC(=O)[C@](C)(C[C@H](OC(=O)/C(C)=C\C)[C@@H]12)O3 | 0.868 µM | 1.49 µM | 7.73 µM | 15.8 µM | 0.563 µM | 2.06 µM | 6.47 µM | 2.18 µM | 1.98 µM | 26.3 µM | 6.73 µM | 2.18 µM | 3.03 µM | 0.394 µM | 2.37 µM | 1.52 µM | 3.64 µM | 2.73 µM |
| O=C(N/N=C1/C(=O)c2c3ccccc3cc3cccc1c23)c1ccccc1 | > 84.8 µM | > 100 µM | > 100 µM | > 56.4 µM | > 100 µM | > 100 µM | 52.2 µM | > 92.3 µM | > 100 µM | 74.9 µM | > 94 µM | > 100 µM | > 95.6 µM | > 100 µM | > 100 µM | 56.3 µM | > 100 µM | > 87.9 µM |
| CCN(CC)CCNC(=O)c1cn2c(ccc3sc4ccccc4c(=O)c32)n1 | 20.7 µM | 28.4 µM | 14.9 µM | 25 µM | 25.4 µM | 21.2 µM | 23.9 µM | 31.8 µM | 28.5 µM | 32.6 µM | 38 µM | 24.6 µM | 25.6 µM | 25.6 µM | 21 µM | 24.2 µM | 27.8 µM | 20.4 µM |
| Nc1nn2c(nc(N)c3c(N)[nH]nc32)c1N=Nc1ccc(Br)cc1 | > 100 µM | 9.88 µM | > 100 µM | > 100 µM | 77.9 µM | > 100 µM | > 100 µM | > 97.1 µM | 15.5 µM | 59.9 µM | 36.5 µM | 28.1 µM | > 94.2 µM | 76.9 µM | > 100 µM | > 100 µM | > 100 µM | > 100 µM |
| COc1cc2c(=O)cnoc2cc1O |  | > 100 µM | > 100 µM | > 100 µM | > 100 µM | > 100 µM | > 100 µM | > 100 µM | > 100 µM | > 100 µM | > 100 µM | > 100 µM | > 100 µM | > 100 µM | > 100 µM | > 100 µM | > 100 µM | > 100 µM |
